Measured values as given in paper PMC6576746, “Rational discovery of dual-indication multi-target PDE/Kinase inhibitor for precision anti-cancer therapy using structural systems pharmacology” (PLoS Computational Biology, 2019).

Assays:
Assay in all cases: cells
Set-up in all cases: species or system panel of human cancer cell lines; Eurofins OncoPanel proliferation; nuclei count by high-content fluorescence imaging, 10-point dose response
[1] = tested on: BeWo; details: Homo sapiens, BeWo, 72 h, cell count, 3 days
How it was run: (§1)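 Cells in RPMI 1640/10% FBS or special medium received compound the day after seeding, with a time-zero plate; 3-day incubation at 37°C, 5% CO2. Nuclei imaged by fluorescence microscopy; 10 half-log doses from 100 μM, 0.1% DMSO. EC50, IC50, GI50 and activity area (0–10) from curve fits.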

[2] = tested on: CAL-62; details: Homo sapiens, CAL-62, 72 h, cell count, 3 days
How it was run: as §1

[3] = tested on: ChaGoK1; details: Homo sapiens, ChaGo-K-1, 72 h, cell count, 3 days
How it was run: as §1

[4] = tested on: EM-2; details: Homo sapiens, EM-2, 72 h, cell count, 3 days
How it was run: as §1

[5] = tested on: H9; details: Homo sapiens, H9, 72 h, cell count, 3 days
How it was run: as §1

[6] = tested on: Hs 229.T; details: 72 h, cell count, 3 days
How it was run: as §1

[7] = tested on: L-428; details: Homo sapiens, L-428, 72 h, cell count, 3 days
How it was run: as §1

[8] = tested on: SK-UT-1; details: Homo sapiens, SK-UT-1, 72 h, cell count, 3 days
How it was run: as §1

[9] = tested on: SU-DHL-10; details: Homo sapiens, SU-DHL10, 72 h, cell count, 3 days
How it was run: as §1

[10] = tested on: SW-13; details: Homo sapiens, SW13, 72 h, cell count, 3 days
How it was run: as §1

[11] = tested on: SiHa; details: Homo sapiens, SiHa, 72 h, cell count, 3 days
How it was run: as §1

[12] = tested on: T24; details: Homo sapiens, T-24, 72 h, cell count, 3 days
How it was run: as §1

[13] = tested on: TE 381.T; details: TE 381.T, 72 h, cell count, 3 days
How it was run: as §1

[14] = tested on: UM-UC-3; details: Homo sapiens, UMUC3, 72 h, cell count, 3 days
How it was run: as §1

[15] = 50% of maximum possible response

Compound: C[C@@H]1CC(=O)NN=C1c1ccc(NN=C(C#N)C#N)cc1 [levosimendan]
- IC50 [1, 15]: 37.4 µM
- GI50 ([1]; corrected for time zero): 33.9 µM
- EC50 ([1]; curve inflection point): 37.4 µM
- IC50 [2, 15]: 12.3 µM
- GI50 ([2]; corrected for time zero): 11.4 µM
- EC50 ([2]; curve inflection point): 12.1 µM
- IC50 [3, 15]: 84.9 µM
- GI50 ([3]; corrected for time zero): 57.2 µM
- EC50 ([3]; curve inflection point): 84.9 µM
- IC50 [4, 15]: 25.4 µM
- GI50 ([4]; corrected for time zero): 18.6 µM
- EC50 ([4]; curve inflection point): 22.3 µM
- IC50 [5, 15]: 5.4 µM
- GI50 ([5]; corrected for time zero): 4.31 µM
- EC50 ([5]; curve inflection point): 4.92 µM
- IC50 [6, 15]: 100 µM
- GI50 ([6]; corrected for time zero): 60.3 µM
- EC50 ([6]; curve inflection point): 100 µM
- IC50 [7, 15]: 69.2 µM
- GI50 ([7]; corrected for time zero): 53.1 µM
- EC50 ([7]; curve inflection point): 69.2 µM
- IC50 [8, 15]: 11.8 µM
- GI50 ([8]; corrected for time zero): 9.1 µM
- EC50 ([8]; curve inflection point): 11.8 µM
- IC50 [9, 15]: 13.3 µM
- GI50 ([9]; corrected for time zero): 12 µM
- EC50 ([9]; curve inflection point): 13.3 µM
- IC50 [10, 15]: 6.13 µM
- GI50 ([10]; corrected for time zero): 3.72 µM
- EC50 ([10]; curve inflection point): 6.13 µM
- IC50 [11, 15]: > 100 µM
- GI50 ([11]; corrected for time zero): 60 µM
- EC50 ([11]; curve inflection point): 41.2 µM
- IC50 [12, 15]: 6.95 µM
- GI50 ([12]; corrected for time zero): 6.6 µM
- EC50 ([12]; curve inflection point): 6.27 µM
- IC50 [13, 15]: 24.5 µM
- GI50 ([13]; corrected for time zero): 15.5 µM
- EC50 ([13]; curve inflection point): 24.5 µM
- IC50 [14, 15]: 48.5 µM
- GI50 ([14]; corrected for time zero): 46 µM
- EC50 ([14]; curve inflection point): 48.5 µM
